Experimental findings from US12070452B2, “Compounds targeting HSP110 protein for cancer treatment” (INSERM (Institut National de la Santé et de la Recherche …, priority 2018, dated 2024) are described below.

A word on the IC50: it is the concentration at which inhibition is half-maximal.

One experiment concerns the target T1, human protein HSP110 (Homo sapiens, UniProt Q92598).
T1 construct: DNA coding the NBD-HSP110 (from human-HSP110)
As to the kind of experiment: HSP110 anti-aggregation function (luciferase substrate test). The format is biochemical. As to conditions: human HSP110 1.5 μM with firefly luciferase, 30 min at 42° C.; read-out: IC50 of HSP110 anti-aggregating activity. As to the method:
Anti-aggregation function of HSP110 was evaluated as described by O H et al (The Journal of biological chemistry 274, 15712-15718 (1999)). The human protein HSP110 (obtained as described above) at a concentration of 1.5 μM was incubated with firefly luciferase (from Sigma—from Photinus pyralis) in reaction buffer and heated in water bath for 30 min at 42° C.
Compounds of the present invention were added in reaction buffer to achieve the indicated concentrations and the final DMSO concentration was held constant at 1%. The heated reaction was diluted 10 times into buffer containing 60% of rabbit reticulocytelysate and incubated for 2 hours. The luciferase activity was measured by diluting 5 times the solution in HEPES and adding 5 μL of the solution in luciferase substrate (50 μL of Luciferase Assay System—Promega E1501 diluted in HEPES). The bioluminescence was reading with Envision Perkin Elmer.
The percentage of activity (x) was calculated by using the following equation: x=[(A−B)/(C−B)]×100, where (A) is the luciferase luminescence in presence of compounds of the invention, (B) in absence of HSP110 and (C) in presence of DMSO (Control). The percentage of total folding HSP110-promoted (mean=36%) was calculated considering as 100% the luminescence of luciferase incubated with HSP110 without heat shock. The IC50 were calculated from the dose-response curves, which were fitted by GraphPrism (Equation: Y=100/(1+10^((Log IC50−X)*HillSlope)).

A further experiment concerns phosphorylated STAT3. Kind of experiment: P-STAT3 level in SW480 cells (immunoblot quantification). Format: cell-based, human. As to conditions: 10 μM, 48 h, normalized by actin. As to the method: Results for SW480 cells treated during 48 h with non-relevant antibody (called NT), compound 52, compound 33, compound 51 and comparative compound 61 at 10 μM, and sh110 cells correspond to the third fourth, fifth, sixth and last columns from the left to the right.
FIG. 3B: Quantification of P-STAT3 level (in percentage) normalized by actin. […] (Ordinate: Percentage of P-STAT3 level (scale 50)
Immunoprecipitation test were realized on human colorectal cancer cells (SW480 and HCT116 cell lines), using a control depleted in HSP110 called Sh110 and a not depleted cells in HSP110. STAT3 phosphorylation is then […] by compounds 33 and 52. Depletion of HSP110 in the negative control blocked the phosphorylation of STAT3 without affecting STAT3 overall levels (FIGS. 2 and 3).
A general note: Immunoblotting shows a protein as a band on a membrane.

A further experiment deals with SW480 cells. As to the kind of experiment: Cell proliferation, Cell Trace Violet flow cytometry, SW480. As to conditions: SW480 cells with shRNA control, 10 μM, 96 h. The format is cell-based, human. As to the method:
FIG. 4A: Relative quantification of cell proliferation in SW480 cells transfected with shRNA for shRNA control (shCtrl) (from the first to the fourth columns from left to right) or HSP110-silencing (sh110) (from the fifth to the last columns, from left to right) treated with Ctrl (DMSO), compound 33, compound 52, and comparative compound 61 at a concentration of 10 μM during 96 h (Histogram columns from the left to the right). Ordinate: Percentage of SW480 cell proliferation (scale 20) for the upper figure; Statistical analysis has been performed by ANOVA **: (p<0.05); ***: p<0.005. Western blot of HSP110 and actin (first and second line of blots) for the shCtrl SW480 cells and sh110 SW480 cells (first and second columns).
Colorectal cells lines were purchased from the American Type Culture Collection. CT-26 and HCT116 were cultured in Roswell Park Memorial Institute 1640 medium. […]
Proliferation was determined by staining cells with Cell Trace Violet (Invitrogen-C34557) according to the manufacturer's procedure. Cell divisions were detected over 96 h by flow cytometry (LSRII cytometer) and the number of cell generations was estimated by ModFit software. […]

A further experiment concerns the target T2, HSP110/Myd88 interaction (Homo sapiens, UniProt Q92598).
T2 construct: endogenous in cells
As to the kind of experiment: Immunoprecipitation of HSP110/Myd88 in DLBCL cell line. Format: cell-based. As to conditions: IP Myd88, Western Blot. The source says:
FIG. 10A: Immunoprecipitation (IP) analysis of HSP110 (first line), Myd88 (second line), heavy chains (third line) and actin (fourth line) in large B cell lymphoma cell lines (DLBCL).
Left part of FIG. 10A (“Inputs”): treated with (from left to right column of the left part of FIG. 10A) DMSO, compound 52 (5052), compound 33 (5033) and compound 61 (5061) (Negative control);
Middle part of FIG. 10A (“IP Myd88”): treated with (from left to right column of the middle part of FIG. 10A) DMSO, compound 52, compound 33 and compound 61 (as the negative control); Myd88 was immunoprecipitated with an antibody specifically directed against Myd88.
MyD88 was immuno-precipitated from the cell line which has been non-treated or treated with the HSP110 inhibitors.

The test system of a further experiment is DLBCL cell lines. Kind of experiment: Viability of B-cell lymphoma cell lines (Annexin V/7AAD staining). Format: cell-based, human. As to conditions: 96 h, 5-40 μM. The text has this: FIG. 10E: Viability of various B-cell lymphoma cell lines treated with increasing concentrations of compound 33 (inhibitor 33).
Groups of bars, from the left to the right of FIG. 10E: (i) OCI-Ly10 human diffuse large B-cell lymphoma cell line, (ii) HBL1 human diffuse large B-cell lymphoma cell line, (iii) TMD8 human B cell lymphoma cell line, (iv) OCI-Ly3 human large B-cell lymphoma cell line and (v) U2932 human diffuse large B-cell lymphoma cell line.
In each group of bars, from the left to the right: (i) Control, without treatment, (ii) Compound 33 at 5 μM, (iii) Compound 33 at 10 μM, (iv) Compound 33 at 20 μM, (v) Compound 33 at 30 μM, (vi) Compound 33 at 40 μM.
FIG. 10F: Viability of various B-cell lymphoma cell lines treated with increasing concentrations of compound 52 (inhibitor 52).
Groups of bars, from the left to the right of FIG. 10F: (i) TMD8 human B cell lymphoma cell line and (ii) OCI-Ly3 human large B-cell lymphoma cell line.
In each group of bars, from the left to the right: (i) Control, without treatment (0 μM), (ii) Compound 52 at 5 μM, (iii) Compound 52 at 10 μM, (iv) Compound 52 at 20 μM, (v) Compound 52 at 30 μM, (vi) Compound 52 at 40 μM.

T2 sequence (Q92598 2-858 limits assumed): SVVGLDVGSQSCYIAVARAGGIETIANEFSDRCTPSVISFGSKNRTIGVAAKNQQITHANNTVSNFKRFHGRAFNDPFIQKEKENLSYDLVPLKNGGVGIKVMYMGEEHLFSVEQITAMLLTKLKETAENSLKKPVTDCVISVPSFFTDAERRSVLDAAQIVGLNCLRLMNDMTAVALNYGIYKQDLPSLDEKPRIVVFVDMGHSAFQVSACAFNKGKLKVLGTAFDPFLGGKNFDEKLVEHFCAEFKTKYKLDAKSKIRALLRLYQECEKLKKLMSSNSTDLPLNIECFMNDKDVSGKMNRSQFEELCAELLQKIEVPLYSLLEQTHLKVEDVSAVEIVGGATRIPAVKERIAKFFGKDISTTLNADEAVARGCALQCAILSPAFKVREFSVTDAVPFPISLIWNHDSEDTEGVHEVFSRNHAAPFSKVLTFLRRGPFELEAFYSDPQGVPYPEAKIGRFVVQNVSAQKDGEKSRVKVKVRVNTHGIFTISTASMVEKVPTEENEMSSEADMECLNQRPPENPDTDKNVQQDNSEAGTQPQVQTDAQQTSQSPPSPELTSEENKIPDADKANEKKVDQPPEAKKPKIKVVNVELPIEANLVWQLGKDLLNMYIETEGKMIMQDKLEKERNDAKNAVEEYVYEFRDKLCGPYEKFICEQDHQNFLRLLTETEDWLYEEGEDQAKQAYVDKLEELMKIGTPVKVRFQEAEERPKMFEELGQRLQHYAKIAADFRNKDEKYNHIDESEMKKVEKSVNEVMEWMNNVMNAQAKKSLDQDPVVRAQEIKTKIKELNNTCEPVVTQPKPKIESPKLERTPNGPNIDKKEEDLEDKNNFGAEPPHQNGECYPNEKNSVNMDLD
T1 sequence (Q92598 whole entry, looked up): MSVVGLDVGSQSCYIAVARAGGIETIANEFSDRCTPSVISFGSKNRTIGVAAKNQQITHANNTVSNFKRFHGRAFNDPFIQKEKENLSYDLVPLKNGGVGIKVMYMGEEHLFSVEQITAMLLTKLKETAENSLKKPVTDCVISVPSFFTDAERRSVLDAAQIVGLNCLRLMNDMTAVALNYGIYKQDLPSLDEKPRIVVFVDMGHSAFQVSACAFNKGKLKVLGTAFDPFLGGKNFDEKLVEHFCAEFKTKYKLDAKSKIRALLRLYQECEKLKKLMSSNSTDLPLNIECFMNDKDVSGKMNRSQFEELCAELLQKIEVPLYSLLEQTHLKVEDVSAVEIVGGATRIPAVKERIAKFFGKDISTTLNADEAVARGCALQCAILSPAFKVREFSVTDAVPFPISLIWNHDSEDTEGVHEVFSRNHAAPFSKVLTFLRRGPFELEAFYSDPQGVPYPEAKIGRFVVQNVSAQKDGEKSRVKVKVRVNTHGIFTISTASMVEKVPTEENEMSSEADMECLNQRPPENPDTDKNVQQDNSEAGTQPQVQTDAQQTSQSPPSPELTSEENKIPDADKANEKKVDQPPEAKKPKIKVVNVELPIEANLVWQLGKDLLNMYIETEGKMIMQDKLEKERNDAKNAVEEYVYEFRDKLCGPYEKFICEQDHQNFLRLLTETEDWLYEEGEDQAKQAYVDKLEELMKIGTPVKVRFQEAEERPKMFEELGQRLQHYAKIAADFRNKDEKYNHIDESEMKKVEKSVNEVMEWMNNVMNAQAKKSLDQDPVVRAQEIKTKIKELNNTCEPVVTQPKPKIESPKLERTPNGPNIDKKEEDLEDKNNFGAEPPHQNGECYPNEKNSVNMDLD

Regarding `COc1cc(-c2cnc(-c3cnc(-c4cc(OC)c(OC)c(OC)c4)c(C)c3)c(/C=C/c3ccccc3)c2)cc(OC)c1OC` [compound 52, (E)-5′-Methyl-3-styryl-5,6′-bis(3,4,5-trimethoxyphenyl)-2,3′-bipyridine], the IC50 at human protein HSP110 worked out at 86 ± 1.5 µM. In addition, the P-STAT3 level entry in the experiment on phosphorylated STAT3 is on record as “about 20%”. Further, the “hampering of cell proliferation” value with SW480 cells is given as 82%. Moreover, the HSP110/Myd88 interaction entry at HSP110/Myd88 interaction is listed as “abrogate”. In the experiment on DLBCL cell lines (TMD8 and OCI-Ly3), the “viability of DLBCL cell lines” value is given as “reduces the viability”.
Consider `COc1ccc(-c2ncc(-c3ncc(-c4cc(OC)c(OC)c(OC)c4)cc3/C=C/c3ccccc3)cc2C)cc1OC` [compound 33, (E)-6′-(3,4-Dimethoxyphenyl)-5′-methyl-3-styryl-5-(3,4,5-trimethoxyphenyl)-2,3′-bipyridine], for which, at human protein HSP110, the IC50 was 58.3 ± 1.7 µM. Besides, the P-STAT3 level in the experiment with phosphorylated STAT3 is about 60%. In the experiment on SW480 cells, the “hampering of cell proliferation” value came to 60%. For the same compound, at HSP110/Myd88 interaction, the HSP110/Myd88 interaction result is reported as “abrogate”. Moreover, the “viability of DLBCL cell lines” value in the experiment on DLBCL cell lines (OCI-Ly10, HBL1, TMD8, OCI-Ly3 and U2932) was “reduces the viability”.
